Non-standard residues stand in square brackets, D forms with d. Residues, ends and D or L forms follow the SMILES beside them. Phe(4-CH2COOH) = N[C@@H](Cc1ccc(CC(=O)O)cc1)C(=O)O
Each compound was assayed against Tyrosine-protein kinase Lck (Homo sapiens, UniProt P06239) (assay: Binding affinity towards p56 Lck tyrosine kinase SH2 domain was determined by biological assay).
Sequence of Tyrosine-protein kinase Lck (P06239 whole entry, the tested form may be a part): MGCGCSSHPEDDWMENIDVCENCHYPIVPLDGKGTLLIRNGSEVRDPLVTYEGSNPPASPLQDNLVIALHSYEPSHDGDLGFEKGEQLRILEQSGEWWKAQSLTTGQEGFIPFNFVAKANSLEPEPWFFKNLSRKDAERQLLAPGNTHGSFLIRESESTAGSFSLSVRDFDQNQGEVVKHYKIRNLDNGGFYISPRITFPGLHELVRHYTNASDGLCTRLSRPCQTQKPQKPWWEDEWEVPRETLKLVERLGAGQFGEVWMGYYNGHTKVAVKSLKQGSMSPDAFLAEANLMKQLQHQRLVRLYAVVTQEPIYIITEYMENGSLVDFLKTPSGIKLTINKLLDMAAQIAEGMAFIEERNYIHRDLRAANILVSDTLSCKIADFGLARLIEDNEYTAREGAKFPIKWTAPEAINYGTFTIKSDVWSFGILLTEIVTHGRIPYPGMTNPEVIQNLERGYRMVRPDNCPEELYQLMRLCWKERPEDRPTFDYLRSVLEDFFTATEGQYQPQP

Compound | Kd
COc1ccc(CNC(=O)[C@H](CCC(=O)O)NC(=O)[C@H](Cc2ccc(CS(=O)(=O)O)cc2)NC(=O)Cc2cccc3ccccc23)cc1 | 4 µM
COc1ccc(CNC(=O)[C@H](CCC(=O)O)NC(=O)[C@H](Cc2ccc(CC(=O)O)cc2)NC(=O)Cc2cccc3ccccc23)cc1 | 5 µM
COc1ccc(CNC(=O)[C@H](CCC(=O)O)NC(=O)[C@H](Cc2ccc(NC(=O)C(=O)O)cc2)NC(=O)Cc2ccccc2)cc1 | 17 µM
COc1ccc(CNC(=O)[C@H](CCC(=O)O)NC(=O)[C@H](Cc2ccc(CS(=O)(=O)O)cc2)NC(C)=O)cc1 | 25 µM
COc1ccc(CNC(=O)[C@H](CCC(=O)O)NC(=O)[C@H](Cc2ccc(C(F)(F)C(=O)O)cc2)NC(C)=O)cc1 | 166 µM
COc1ccc(CNC(=O)[C@H](CCC(=O)O)NC(=O)[C@H](Cc2ccc(CC(=O)O)cc2)NC(C)=O)cc1 | 50 µM
COc1ccc(CNC(=O)[C@H](CCC(=O)O)NC(=O)[C@H](Cc2ccc(NC(=O)C(=O)O)cc2)NC(=O)Cc2ccc3ccccc3c2)cc1 | 3 µM
COc1ccc(CNC(=O)[C@H](CCC(=O)O)NC(=O)[C@H](Cc2ccc(C(=O)C(=O)O)cc2)NC(C)=O)cc1 | 65 µM
COc1ccc(CNC(=O)[C@H](CCC(=O)O)NC(=O)[C@H](Cc2ccc(C(O)C(=O)O)cc2)NC(C)=O)cc1 (stereo partly specified) | 15 µM
COc1ccc(CNC(=O)[C@H](CCC(=O)O)NC(=O)[C@H](Cc2ccc(OP(=O)(O)O)cc2)NC(=O)Cc2cccc3ccccc23)cc1 | 0.04 µM
CC[C@H](C)[C@H](NC(=O)[C@H](CCC(=O)O)NC(=O)[C@H](CCC(=O)O)NC(=O)[C@H](Cc1ccc(CC(=O)O)cc1)NC(C)=O)C(=O)O (Ac-[Phe(4-CH2COOH)]EEI-OH) | 42 µM
COc1ccc(CNC(=O)[C@H](CCC(=O)O)NC(=O)[C@H](Cc2ccc(CCC(=O)O)cc2)NC(C)=O)cc1 | 184 µM
COc1ccc(CNC(=O)[C@H](CCC(=O)O)NC(=O)[C@H](Cc2ccc(NC(=O)C(=O)O)cc2)NC(=O)CCc2ccccc2)cc1 | 13 µM
COc1ccc(CNC(=O)[C@H](CCC(=O)O)NC(=O)[C@H](Cc2ccc(NC(=O)C(=O)O)cc2)NC(C)=O)cc1 | 42 µM
COc1ccc(CNC(=O)[C@H](CCC(=O)O)NC(=O)[C@H](Cc2ccc(NC(=O)C(=O)O)cc2)NC(=O)c2ccccc2)cc1 | 32 µM
COc1ccc(CNC(=O)[C@H](CCC(=O)O)NC(=O)[C@H](Cc2ccc(C(O)C(=O)O)cc2)NC(=O)Cc2cccc3ccccc23)cc1 (stereo partly specified) | 2 µM
